Measurements as given in patent US20250034515A1, “Method of Production of Organoids and Uses Thereof” (Université de Strasbourg, priority 2021, published 2025).

System: Aspc-1 cells
Assay: Viability of pancreatic cancerous 3D organoids in liquid pearls (Calcein-AM / propidium iodide, Celigo image cytometry)
Format: cell-based, human
Conditions: AsPC-1 organoids in liquid pearls; Gemcitabine 80 μM
Experimental: FIG. 4. Effects of an ethanolic plant extract on 3D cultured cells viability. Pancreatic cancer cells seeded at 10^5 cells/mL were injected and grown in liquid pearls at a volume of 150 μL for 24 hours, then exposed to ethanolic extract #138-10D (80 μg/ml), vehicle or Gemcitabine (80 μM). After 24 hours of incubation, the cells were labeled (Calcein-AM=green-living cells and propidium iodide=red-dead cells). The composite image of the two channels was analyzed by imaging cytometry.
In a first step, medium filling the pearls is prepared using DMEMhigh glucose complete medium supplemented by 1.2% of methylcellulose solution (MC) at a ratio of 4 to 1. For spheroid generation, 150 μL of pearls medium were dispensed onto fumed silica-coated 6-well plates, then Aspc-1 cells, at a density of 10,000 cells/mL, were directly injected into each pearl. The injected pearls were then incubated in a humidified incubator at 37 C° and 5% CO2.
After 24 hours, 50 μL of complete medium containing the different extracts (final concentration 80 μg/mL) were injected into each pearl and incubated for an additional 48 hours. […] Pearls containing cancerous organoids were finally analyzed on Celigo image cytometer (Cyntellect Inc, San Diego, CA, USA).

Nc1ccn([C@@H]2O[C@H](CO)[C@@H](O)C2(F)F)c(=O)n1 [Gemcitabine]
activity on AsPC-1 cells (3D cultured cells viability): only active on AsPC-1 cells at a concentration of 80 μM
